According to patent US20220378766A1, “[…] OF A GENE ENCODING AN […] BY TREATING A HUMAN SUBJECT WITH A NITROXIDE” (priority 2021, published 2022):

Test system: UCP3
Assay: Effects of Tempol on gene expression in mice, chip-based microarray of cardiac tissue
Format: in vivo
Details: Tempol 5 mg/g of food from 14 to 31 months after birth
Protocol: To assess the effects of Tempol on gene expression, Tempol was administered to experimental mice at a dose of 5 mg/g of food from 14 months to 31 months after birth. Mice receiving the same food without the addition of Tempol were used as a negative control. At the age of 31 months, the experimental animals were sacrificed and the hearts were surgically removed. The expression of a broad spectrum of genes in the cardiac tissue was assessed using chip-based microarray technology. Such chips are well known in the art and are widely used to assess gene expression.

CC1(C)CC(O)CC(C)(C)N1[O] [Tempol, 4-hydroxy-2,2,6,6-tetramethylpiperidine-1-oxyl]
expression of UCP3 (cardiac tissue, microarray): statistically significant increase in expression
Fold change (UCP3 gene expression after Tempol administration) (vs. same food without Tempol, cardiac tissue per text (table title says adipose tissue), P-value 0.00): 1.57
